Measurements as given in article PMC6856039 (Investigational New Drugs, 2019).

System: Japanese patients with advanced EGFR mutation-positive NSCLC
Test: Phase I study: dose-limiting toxicities, adverse drug reactions, tolerability
Format: in vivo, human
Experimental: This was an open-label, non-randomized, dose escalation phase I study conducted between December 14, 2015 and July 7, 2016 at 12 centers in Japan. The study was conducted in three phases (dose escalation phase, expansion phase, and extension phase), and the design is shown in Supplementary Fig. 1 (Online Resource 1). […] In patients who received the BID regimen, the administration interval was ≥10 h.
The first phase was the dose escalation phase conducted according to a 3 + 3 design, with a minimum of three patients treated at each dose level. […] The dosing rationale was derived from a 4-weeks repeated oral-dose toxicology study in monkeys. […] If none of the initial three patients treated within a dose level experienced a dose-limiting toxicity (DLT) during Cycle 1, the dose was escalated to the next level. […] If none of the three additional patients experienced DLTs after all of them completed Cycle 1, the dose was escalated to the next level. If at least one of the additional three patients developed a DLT, then the dose escalation was stopped and at least six evaluable patients were enrolled at the previous dose level to establish the maximum tolerated dose (MTD). The maximum dose level was defined as Dose Level 9 (150 mg/day). Based on safety and PK results, the dosing schedule could be changed to a BID regimen.
AEs were evaluated and graded according to the National Cancer Institute Common Terminology Criteria for Adverse Events Version 4.03. DLTs were also evaluated and defined as hematologic toxicity (Grade 4 neutropenia lasting >7 days, Grade 4 thrombocytopenia or Grade 3 thrombocytopenia associated with bleeding and requiring blood transfusion, or febrile neutropenia) or non-hematologic toxicity (Grade ≥3 nausea/vomiting uncontrolled by aggressive antiemetic treatment, Grade ≥3 diarrhea lasting >48 h and unresponsive to treatment, Grade ≥3 aspartate aminotransferase/alanine aminotransferase lasting >7 days, corneal disorder worsening by ≥1 grade, or Grade ≥3 other non-hematological toxicity).

Compound: C=CC(=O)N[C@H]1CCc2c(-c3cnc4ccccc4c3)c3c(N)ncnc3n2C1 [TAS-121]
- ALT increased, ≥G3 (4 mg/day QD, N = 29): 0 n
- AST increased, ≥G3 (4 mg/day QD, N = 29): 0 n
- Decreased appetite, any grade (4 mg/day QD, N = 29): 0 n
- Decreased appetite, ≥G3 (4 mg/day QD, N = 29): 0 n
- Diarrhea, any grade (4 mg/day QD, N = 29): 6 n
- Diarrhea, ≥G3 (4 mg/day QD, N = 29): 0 n
- Dry skin, ≥G3 (4 mg/day QD, N = 29): 0 n
- Hemoglobin decreased, ≥G3 (4 mg/day QD, N = 29): 0 n
- Hypoalbuminemia, ≥G3 (4 mg/day QD, N = 29): 0 n
- Malaise, ≥G3 (4 mg/day QD, N = 29): 0 n
- Nausea, ≥G3 (4 mg/day QD, N = 29): 0 n
- Pruritus, ≥G3 (4 mg/day QD, N = 29): 0 n
- Pyrexia, ≥G3 (4 mg/day QD, N = 29): 0 n
- Rash, ≥G3 (4 mg/day QD, N = 29): 0 n
- Stomatitis, ≥G3 (4 mg/day QD, N = 29): 0 n
- Urticaria, ≥G3 (4 mg/day QD, N = 29): 0 n
- Vomiting, ≥G3 (4 mg/day QD, N = 29): 0 n
- WBC decreased, ≥G3 (4 mg/day QD, N = 29): 0 n
- proportion of patients whose dose was decreased (8 mg/day BID (MTD) group, 7/38): 18.4%
- proportion of patients whose treatment was interrupted (8 mg/day BID (MTD) group, 17/38): 44.7%
- incidence of discontinuation due to ADRs (8 mg/day BID (MTD), 3/38): 7.9%
- AST increased, ≥G3 (8 mg/day BID, N = 38): 0 n
- Decreased appetite, ≥G3 (8 mg/day BID, N = 38): 0 n
- Dry skin, ≥G3 (8 mg/day BID, N = 38): 0 n
- Hypoalbuminemia, ≥G3 (8 mg/day BID, N = 38): 0 n
- Malaise, ≥G3 (8 mg/day BID, N = 38): 0 n
- Nausea, ≥G3 (8 mg/day BID, N = 38): 0 n
- Other embolic and thrombotic events, ≥G3 (8 mg/day BID, N = 38): 0 n
- Pruritus, ≥G3 (8 mg/day BID, N = 38): 0 n
- Pyrexia, ≥G3 (8 mg/day BID, N = 38): 0 n
- Stomatitis, ≥G3 (8 mg/day BID, N = 38): 0 n
- WBC decreased, ≥G3 (8 mg/day BID, N = 38): 0 n
- ALT increased, ≥G3 (8 mg/day QD, N = 38): 0 n
- AST increased, ≥G3 (8 mg/day QD, N = 38): 0 n
- Decreased appetite, ≥G3 (8 mg/day QD, N = 38): 0 n
- Dry skin, ≥G3 (8 mg/day QD, N = 38): 0 n
- Embolic and thrombotic events, any grade (8 mg/day QD, N = 38): 6 n
- Hypoalbuminemia, ≥G3 (8 mg/day QD, N = 38): 0 n
- Interstitial lung disease, ≥G3 (8 mg/day QD, N = 38): 0 n
- Malaise, ≥G3 (8 mg/day QD, N = 38): 0 n
- Nausea, any grade (8 mg/day QD, N = 38): 5 n
- Nausea, ≥G3 (8 mg/day QD, N = 38): 0 n
- Other embolic and thrombotic events, ≥G3 (8 mg/day QD, N = 38): 0 n
- Pruritus, ≥G3 (8 mg/day QD, N = 38): 0 n
- Rash maculo-papular, any grade (8 mg/day QD, N = 38): 11 n
- Stomatitis, ≥G3 (8 mg/day QD, N = 38): 0 n
- Urticaria, any grade (8 mg/day QD, N = 38): 5 n
- Urticaria, ≥G3 (8 mg/day QD, N = 38): 0 n
- Vomiting, ≥G3 (8 mg/day QD, N = 38): 0 n
- WBC decreased, any grade (8 mg/day QD, N = 38): 5 n
- WBC decreased, ≥G3 (8 mg/day QD, N = 38): 0 n
- proportion of patients whose dose was decreased (10 mg/day QD (MTD) group, 7/18): 38.9%
- proportion of patients whose treatment was interrupted (10 mg/day QD (MTD) group, 12/18): 66.7%
- incidence of discontinuation due to ADRs (10 mg/day QD (MTD), 2/18): 11.1%
- AST increased, ≥G3 (10 mg/day QD, N = 18): 0 n
- Decreased appetite, ≥G3 (10 mg/day QD, N = 18): 0 n
- Diarrhea, ≥G3 (10 mg/day QD, N = 18): 0 n
- Dry skin, ≥G3 (10 mg/day QD, N = 18): 0 n
- Embolic and thrombotic events, any grade (10 mg/day QD, N = 18): 5 n
- Hypoalbuminemia, ≥G3 (10 mg/day QD, N = 18): 0 n
- Interstitial lung disease, any grade (10 mg/day QD, N = 18): 0 n
- Interstitial lung disease, ≥G3 (10 mg/day QD, N = 18): 0 n
- Malaise, ≥G3 (10 mg/day QD, N = 18): 0 n
- Nausea, ≥G3 (10 mg/day QD, N = 18): 0 n
- Platelet count decreased, any grade (10 mg/day QD, N = 18): 12 n
- Pruritus, ≥G3 (10 mg/day QD, N = 18): 0 n
- Pyrexia, ≥G3 (10 mg/day QD, N = 18): 0 n
- Rash maculo-papular, any grade (10 mg/day QD, N = 18): 0 n
- Rash maculo-papular, ≥G3 (10 mg/day QD, N = 18): 0 n
- Stomatitis, ≥G3 (10 mg/day QD, N = 18): 0 n
- Urticaria, any grade (10 mg/day QD, N = 18): 6 n
- WBC decreased, any grade (10 mg/day QD, N = 18): 0 n
- WBC decreased, ≥G3 (10 mg/day QD, N = 18): 0 n
- ALT increased, any grade (12 mg/day BID, N = 5): 0 n
- ALT increased, ≥G3 (12 mg/day BID, N = 5): 0 n
- AST increased, any grade (12 mg/day BID, N = 5): 0 n
- AST increased, ≥G3 (12 mg/day BID, N = 5): 0 n
- Decreased appetite, ≥G3 (12 mg/day BID, N = 5): 0 n
- Dermatological toxicity, ≥G3 (12 mg/day BID, N = 5): 0 n
- Dry skin, any grade (12 mg/day BID, N = 5): 0 n
- Dry skin, ≥G3 (12 mg/day BID, N = 5): 0 n
- Embolic and thrombotic events, any grade (12 mg/day BID, N = 5): 0 n
- Embolic and thrombotic events, ≥G3 (12 mg/day BID, N = 5): 0 n
- Hypoalbuminemia, ≥G3 (12 mg/day BID, N = 5): 0 n
- Malaise, ≥G3 (12 mg/day BID, N = 5): 0 n
- Nausea, ≥G3 (12 mg/day BID, N = 5): 0 n
- Other embolic and thrombotic events, any grade (12 mg/day BID, N = 5): 0 n
- Other embolic and thrombotic events, ≥G3 (12 mg/day BID, N = 5): 0 n
- Pruritus, any grade (12 mg/day BID, N = 5): 0 n
- Pruritus, ≥G3 (12 mg/day BID, N = 5): 0 n
- Pulmonary embolism, any grade (12 mg/day BID, N = 5): 0 n
- Pulmonary embolism, ≥G3 (12 mg/day BID, N = 5): 0 n
- Pyrexia, ≥G3 (12 mg/day BID, N = 5): 0 n
- Rash maculo-papular, ≥G3 (12 mg/day BID, N = 5): 0 n
- Rash, ≥G3 (12 mg/day BID, N = 5): 0 n
- Stomatitis, ≥G3 (12 mg/day BID, N = 5): 0 n
